Data as given in ChEMBL document CHEMBL1201862, “PubChem BioAssay data set” (2004).
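Five concentrations, 48 hours, 96-well plates. At the GI50, growth is halved.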 Activity calls are given as the source filed them. Cut-off read from the data, not from the text of the source: active = GI50 up to about 1.1 µM and inactive = higher.

Experiments:
Test in all cases: NCI-60 cell line screen, 48 h
SW-620 = tested on: SW-620
SNB-75 = tested on: SNB-75
SNB-19 = tested on: SNB-19
HCT-116 = tested on: HCT-116
SNB-78 = tested on: SNB-78
SK-MEL-5 = tested on: SK-MEL-5
A498 = tested on: A498
UO-31 = tested on: UO-31
NCI-H522 = tested on: NCI-H522
KM-20L2 = tested on: KM-20L2
CCRF-CEM = tested on: CCRF-CEM
ACHN = tested on: ACHN
HCC 2998 = tested on: HCC 2998
SK-MEL-28 = tested on: SK-MEL-28
OVCAR-4 = tested on: OVCAR-4
A549 = tested on: A549
SF-268 = tested on: SF-268
OVCAR-8 = tested on: OVCAR-8
UACC-257 = tested on: UACC-257
LXFL 529 = tested on: LXFL 529
NCI-H226 = tested on: NCI-H226
DLD-1 = tested on: DLD-1
LOX IMVI = tested on: LOX IMVI
Malme-3M = tested on: Malme-3M
M19-MEL = tested on: M19-MEL
EKVX = tested on: EKVX
TK-10 = tested on: TK-10
M14 = tested on: M14
UACC-62 = tested on: UACC-62
RPMI-8226 = tested on: RPMI-8226
IGROV-1 = tested on: IGROV-1
XF498 = tested on: XF498
HL-60 = tested on: HL-60
MOLT-4 = tested on: MOLT-4
DMS-273 = tested on: DMS-273
786-0 = tested on: 786-0
HCT-15 = tested on: HCT-15
SF-295 = tested on: SF-295
U-251 = tested on: U-251
SN12C = tested on: SN12C
OVCAR-3 = tested on: OVCAR-3
HT-29 = tested on: HT-29
CAKI-1 = tested on: CAKI-1
RXF 393 = tested on: RXF 393
SK-MEL-2 = tested on: SK-MEL-2
SR = tested on: SR
NCI-H460 = tested on: NCI-H460
NCI-H23 = tested on: NCI-H23
SF-539 = tested on: SF-539
OVCAR-5 = tested on: OVCAR-5
HOP-92 = tested on: HOP-92
K562 = tested on: K562
DMS-114 = tested on: DMS-114
COLO 205 = tested on: COLO 205
SK-OV-3 = tested on: SK-OV-3
KM12 = tested on: KM12
MCF7 = tested on: MCF7
PC-3 = tested on: PC-3
HOP-18 = tested on: HOP-18
Hs-578T = tested on: Hs-578T
DU-145 = tested on: DU-145
T47D = tested on: T47D
MDA-MB-435 = tested on: MDA-MB-435
MDA-MB-231 = tested on: MDA-MB-231
MDA-N = tested on: MDA-N
NCI/ADR-RES = tested on: NCI/ADR-RES
BT-549 = tested on: BT-549
HOP-62 = tested on: HOP-62

## CCOc1ccccc1NC(=O)CC1C(=O)Nc2ccccc2[S+]1[O-] (centres undefined)
SW-620
  GI50: > 100 µM (inactive)
SNB-75
  GI50: > 100 µM (inactive)
SNB-19
  GI50: > 100 µM (inactive)
HCT-116
  GI50: > 100 µM (inactive)
SNB-78
  GI50: > 100 µM (inactive)
SK-MEL-5
  GI50: 54.8 µM (inactive)
A498
  GI50: > 100 µM (inactive)
UO-31
  GI50: 85.3 µM (inactive)
NCI-H522
  GI50: 45.4 µM (inactive)
KM-20L2
  GI50: > 100 µM (inactive)
CCRF-CEM
  GI50: 39.8 µM (inactive)
ACHN
  GI50: 66.2 µM (inactive)
HCC 2998
  GI50: > 100 µM (inactive)
SK-MEL-28
  GI50: > 100 µM (inactive)
OVCAR-4
  GI50: 32.4 µM (inactive)
A549
  GI50: > 100 µM (inactive)
SF-268
  GI50: > 100 µM (inactive)
OVCAR-8
  GI50: 43.2 µM (inactive)
UACC-257
  GI50: > 100 µM (inactive)
LXFL 529
  GI50: 56.8 µM (inactive)
NCI-H226
  GI50: 60.5 µM (inactive)
DLD-1
  GI50: > 100 µM (inactive)
LOX IMVI
  GI50: > 100 µM (inactive)
Malme-3M
  GI50: > 100 µM (inactive)
M19-MEL
  GI50: > 100 µM (inactive)
EKVX
  GI50: 43 µM (inactive)
TK-10
  GI50: > 100 µM (inactive)
M14
  GI50: 77.1 µM (inactive)
UACC-62
  GI50: 26.3 µM (inactive)
RPMI-8226
  GI50: 11.4 µM (inactive)
IGROV-1
  GI50: 51.5 µM (inactive)
XF498
  GI50: 44.8 µM (inactive)
HL-60
  GI50: 26.8 µM (inactive)
MOLT-4
  GI50: 10.5 µM (inactive)
DMS-273
  GI50: 66.5 µM (inactive)
786-0
  GI50: 63.1 µM (inactive)
HCT-15
  GI50: > 100 µM
SF-295
  GI50: > 100 µM (inactive)
U-251
  GI50: 67.9 µM (inactive)
SN12C
  GI50: > 100 µM (inactive)
OVCAR-3
  GI50: 39.5 µM (inactive)
HT-29
  GI50: > 100 µM (inactive)
CAKI-1
  GI50: > 100 µM (inactive)
RXF 393
  GI50: 50 µM (inactive)
SK-MEL-2
  GI50: > 100 µM (inactive)
SR
  GI50: 16.5 µM (inactive)
NCI-H460
  GI50: 80 µM (inactive)
NCI-H23
  GI50: > 100 µM (inactive)
SF-539
  GI50: > 100 µM (inactive)
OVCAR-5
  GI50: > 100 µM (inactive)
HOP-92
  GI50: 43.1 µM (inactive)
K562
  GI50: 49.7 µM (inactive)
DMS-114
  GI50: > 100 µM (inactive)

## COC(=O)C12OCC34C(CC5C(C)=C(O)C(=O)CC5(C)C3C(O)C1O)OC(=O)C(OC(=O)C=C(C)C)C24 (centres undefined)
SW-620
  GI50: > 500 µM (inactive)
SNB-75
  GI50: 318 µM (inactive)
SNB-19
  GI50: 368 µM (inactive)
HCT-116
  GI50: > 489 µM (inactive)
SNB-78
  GI50: > 476 µM (inactive)
SK-MEL-5
  GI50: 191 µM (inactive)
A498
  GI50: > 500 µM (inactive)
UO-31
  GI50: > 500 µM (inactive)
COLO 205
  GI50: > 500 µM (inactive)
NCI-H522
  GI50: 301 µM (inactive)
KM-20L2
  GI50: > 500 µM (inactive)
CCRF-CEM
  GI50: 307 µM (inactive)
SK-OV-3
  GI50: > 500 µM (inactive)
ACHN
  GI50: 0.247 µM (active)
KM12
  GI50: 411 µM (inactive)
HCC 2998
  GI50: 453 µM (inactive)
MCF7
  GI50: 256 µM (inactive)
SK-MEL-28
  GI50: 423 µM (inactive)
PC-3
  GI50: 0.23 µM (active)
OVCAR-4
  GI50: < 0.215 µM (active)
A549
  GI50: > 500 µM (inactive)
SF-268
  GI50: > 500 µM (inactive)
HOP-18
  GI50: > 500 µM (inactive)
OVCAR-8
  GI50: > 500 µM (inactive)
UACC-257
  GI50: 423 µM (inactive)
NCI-H226
  GI50: 436 µM (inactive)
DLD-1
  GI50: 108 µM (inactive)
LOX IMVI
  GI50: 283 µM (inactive)
Hs-578T
  GI50: < 0.215 µM (active)
Malme-3M
  GI50: 228 µM (inactive)
M19-MEL
  GI50: 287 µM (inactive)
EKVX
  GI50: > 469 µM (inactive)
DU-145
  GI50: 0.318 µM (active)
T47D
  GI50: 0.0132 µM (active)
MDA-MB-435
  GI50: < 0.215 µM (active)
TK-10
  GI50: < 0.215 µM (active)
M14
  GI50: < 0.215 µM (active)
MDA-MB-231
  GI50: 0.0234 µM (active)
UACC-62
  GI50: > 500 µM (inactive)
RPMI-8226
  GI50: 361 µM (inactive)
IGROV-1
  GI50: 330 µM (inactive)
MDA-N
  GI50: < 0.215 µM (active)
XF498
  GI50: 335 µM (inactive)
HL-60
  GI50: 498 µM (inactive)
MOLT-4
  GI50: 297 µM (inactive)
DMS-273
  GI50: > 500 µM (inactive)
786-0
  GI50: 0.275 µM (active)
HCT-15
  GI50: > 500 µM
SF-295
  GI50: > 500 µM (inactive)
NCI/ADR-RES
  GI50: > 500 µM (inactive)
U-251
  GI50: 316 µM (inactive)
SN12C
  GI50: > 500 µM (inactive)
HT-29
  GI50: > 500 µM (inactive)
BT-549
  GI50: 0.26 µM (active)
CAKI-1
  GI50: > 500 µM (inactive)
RXF 393
  GI50: 303 µM (inactive)
SK-MEL-2
  GI50: > 500 µM (inactive)
SR
  GI50: 0.215 µM (active)
NCI-H460
  GI50: 161 µM (inactive)
NCI-H23
  GI50: > 469 µM (inactive)
SF-539
  GI50: > 500 µM (inactive)
OVCAR-5
  GI50: > 500 µM (inactive)
HOP-92
  GI50: 234 µM (inactive)
K562
  GI50: > 486 µM (inactive)
DMS-114
  GI50: 167 µM (inactive)
HOP-62
  GI50: > 500 µM (inactive)
